{"source": "paper PMC9697131", "about": "“Agomelatine, Ketamine and Vortioxetine Attenuate Energy Cell Metabolism—In Vitro Study” (International Journal of Molecular Sciences, 2022)", "key": {"[1]": {"system": "complex I (NADH dehydrogenase)", "assay": "Complex I (NADH dehydrogenase) activity, spectrophotometric", "type": "biochemical", "conditions": "100 μM drug, pig brain mitochondria, mean ± SD", "method": "(§1) Pig brains were obtained from a slaughterhouse. Mitochondrial fraction isolation and purification from brain cortex were performed as previously described. Briefly, grey matter from pig brains was homogenized and crude mitochondrial fraction was isolated and then centrifuged on the sucrose gradient to obtain purified mitochondrial fraction. The freshly purified mitochondria were kept on ice until the assays were performed and were used for measurements of the mitochondrial oxygen consumption rate, measurements of ATP and ROS formation. Frozen mitochondria (stored at −70 °C) were used for the following enzyme activity measurements: ETC complexes, citrate synthase (CS) and malate dehydrogenase (MDH) activity.\n(§2) Ultrasonication and incubation of mitochondria with the tested drugs for 30 min at 30 °C was performed before measurement with a corresponding drug-free control (DMSO) for every measurement. Mitochondrial enzymes activities were determined spectrophotometrically as absorbance using a GENESYS 180 UV-Vis Spectrophotometer (Thermo Fisher Scientific, Waltham, MA, USA).\nThe reaction mixture consisted of KH2PO4, MgCl2 and KCN and the reaction was started by adding decylubiquinone and NADH. The rotenone-sensitive NADH oxidation reaction was measured at 340 nm for 5 min. The final protein concentration was 150 µg/mL and final drugs concentrations 2.5, 5, 10, 50 and 100 µM. Drug-free control (DMSO) was used as a control for each measurement."}, "[2]": {"target": "T1, citrate synthase (CS) (Sus scrofa, UniProt P00889)", "T1 construct": "Frozen mitochondria (stored at −70 °C) were used for the following enzyme activity measurements: ETC complexes, citrate synthase (CS) and malate dehydrogenase (MDH) activity; from tissue; host or cells: pig brain cortex, purified mitochondrial fraction (frozen, sonicated)", "T1 sequence (P00889 28-464)": "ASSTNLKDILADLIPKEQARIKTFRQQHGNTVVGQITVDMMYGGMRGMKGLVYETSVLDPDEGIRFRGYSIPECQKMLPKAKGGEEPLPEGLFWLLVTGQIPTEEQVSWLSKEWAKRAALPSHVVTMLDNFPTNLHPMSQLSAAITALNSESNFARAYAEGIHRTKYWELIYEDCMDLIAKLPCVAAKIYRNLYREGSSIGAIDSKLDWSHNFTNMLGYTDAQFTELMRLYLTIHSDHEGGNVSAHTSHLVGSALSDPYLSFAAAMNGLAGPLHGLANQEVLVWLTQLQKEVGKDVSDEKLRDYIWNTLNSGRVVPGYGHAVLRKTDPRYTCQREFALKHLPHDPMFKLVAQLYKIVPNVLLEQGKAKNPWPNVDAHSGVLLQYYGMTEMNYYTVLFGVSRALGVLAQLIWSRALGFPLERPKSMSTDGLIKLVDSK", "assay": "Citrate synthase activity", "type": "biochemical, pig", "conditions": "mean, N=3", "method": "as §1, §2\nThe reaction mixture consisted of Triton, Tris, 5,5′-dithiobis-(2-nitrobenzoic) acid and acetyl coenzyme A. The reaction was started by adding oxaloacetate and the CS activity was measured by detecting the color change of 5,5′-dithiobis-(2-nitrobenzoic) acid at 412 nm with a duration of 3 min. […]"}, "[3]": {"target": "T2, malate dehydrogenase (MDH) (Sus scrofa, UniProt P00346)", "T2 construct": "Frozen mitochondria (stored at −70 °C) were used for the following enzyme activity measurements: ETC complexes, citrate synthase (CS) and malate dehydrogenase (MDH) activity; from tissue; host or cells: pig brain cortex, purified mitochondrial fraction (frozen, sonicated)", "T2 sequence (P00346 25-338)": "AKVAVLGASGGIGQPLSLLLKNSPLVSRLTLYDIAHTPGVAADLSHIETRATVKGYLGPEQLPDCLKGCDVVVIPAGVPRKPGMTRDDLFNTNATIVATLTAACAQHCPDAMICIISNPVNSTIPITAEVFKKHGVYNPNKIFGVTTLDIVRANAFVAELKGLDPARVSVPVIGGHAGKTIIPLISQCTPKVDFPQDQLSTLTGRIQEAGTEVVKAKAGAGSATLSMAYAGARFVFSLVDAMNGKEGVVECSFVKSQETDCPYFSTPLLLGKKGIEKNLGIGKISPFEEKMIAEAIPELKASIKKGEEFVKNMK", "assay": "Malate dehydrogenase activity", "type": "biochemical, pig", "conditions": "mean, N=3", "method": "as §1, §2\nThe conversion of oxaloacetate to malate was used to measure the activity, and it was measured at 340 nm for 3 min. The reaction was initiated by adding oxaloacetate and nicotinamide adenine dinucleotide (NADH). […]"}, "[4]": {"system": "total H2O2 content, pig brain mitochondria", "assay": "Hydrogen peroxide production, Amplex Red", "type": "biochemical", "conditions": "for total H2O2 content (relative to control = 100%): mean ± SD", "method": "as §1\nHydrogen peroxide formation was determined using an Amplex Red Hydrogen Peroxide/Peroxidase Assay Kit. The reaction mixture consisted of 27 mM HEPES (pH 7.4), 114 mM sucrose, 100 mM KCl, 1.3 mM K2HPO4, 5 mM malate, 5 mM pyruvate, 1 µM rotenone, 10 mM succinate, 0.75 mM MgCl2, […], 15 µM Amplex Red and horseradish peroxidase 0.09 U/ML. […] The reaction was stopped by the addition of antimycin A. The standard curve for hydrogen peroxide was prepared using H2O2 standard."}, "[5]": {"target": "T3, MAO-B (Sus scrofa, UniProt Q6PLK3)", "T3 construct": "from tissue; host or cells: pig brain mitochondria", "T3 sequence (Q6PLK3 1-520)": "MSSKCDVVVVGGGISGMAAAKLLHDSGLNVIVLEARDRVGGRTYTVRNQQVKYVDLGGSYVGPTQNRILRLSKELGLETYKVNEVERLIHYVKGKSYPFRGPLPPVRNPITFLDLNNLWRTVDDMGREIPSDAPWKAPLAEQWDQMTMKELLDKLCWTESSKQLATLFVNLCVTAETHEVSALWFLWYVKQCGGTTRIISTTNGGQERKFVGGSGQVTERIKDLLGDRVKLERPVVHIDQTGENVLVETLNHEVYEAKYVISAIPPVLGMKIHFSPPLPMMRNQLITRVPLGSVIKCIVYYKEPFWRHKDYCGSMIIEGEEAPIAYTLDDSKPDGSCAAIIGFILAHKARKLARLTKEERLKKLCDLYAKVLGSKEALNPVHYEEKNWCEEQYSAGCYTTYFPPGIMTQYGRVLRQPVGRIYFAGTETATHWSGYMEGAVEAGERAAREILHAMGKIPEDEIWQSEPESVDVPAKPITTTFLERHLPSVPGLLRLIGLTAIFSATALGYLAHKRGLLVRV", "assay": "MAO-B activity, radiolabeled [14C]PEA substrate", "type": "biochemical, pig", "conditions": "for MAO-B Inhibition (type): 0.1–300 µM; for MAO-B Hillslope / MAO-B Residual Activity: mean", "method": "as §1\nMitochondria in KH buffer at final concentration of 800 µg/mL were preincubated with the tested drugs in a final concentration range of 0.1–300 µM for 60 min at 37 °C. For each measurement, there was a corresponding drug-free control (DMSO). Radiolabeled substrates ([^3H]serotonin for MAO-A and [^14C]PEA for MAO-B) were added to initiate the reaction. The reaction was carried out at 37 °C for 20 min for MAO-A and for 1 min for MAO-B, and the reaction was stopped by hydrochloric acid. The radioactivity of the organic phases of the extracts were measured by liquid scintillation counting (LS 6000IC, Beckman Instruments, Inc., Fullerton, CA, USA).\nThe inhibition of respiration rate and MAO activity were analyzed by A four-parameter logistic regression with Prism software (GraphPad Software, San Diego, CA, USA) was used to analyze the respiratory rate inhibition and activity of MAO. […] The IC50 represents the drug concentration required to inhibit the difference between the baseline and the residual value of the mitochondrial oxygen flux or MAO activity by 50%."}}, "note": "“And” between values parts separate entries of the source, which are not always exact repeats. Identical values can stand only once. Like-named read-outs stand apart in the source and are kept apart here."}
{"smiles": "COc1ccc2cccc(CCNC(C)=O)c2c1", "note": "[agomelatine]", "values": [{"measurement": "complex I activity (relative to control = 100%)", "setting": "[1]", "value": "73.7 ± 5.1", "unit": "%"}, {"measurement": "CS (% of Control)", "setting": "[2]; 10 μM drug", "value": "108.8 % of Control"}, {"measurement": "CS (% of Control)", "setting": "[2]; 100 μM drug", "value": "95.7 % of Control"}, {"measurement": "MDH (% of Control)", "setting": "[3]; 10 μM drug", "value": "101.7 % of Control"}, {"measurement": "MDH (% of Control)", "setting": "[3]; 100 μM drug", "value": "101.0 % of Control"}, {"measurement": "total H2O2 content (relative to control = 100%)", "setting": "[4]; 10 μM drug", "value": "130.1 ± 2.7", "unit": "%"}, {"measurement": "MAO-B Inhibition (type)", "setting": "[5]", "value": "none"}, {"measurement": "MAO-B Inhibition (type)", "setting": "[5]; listed as AGO", "value": "did not affect its activity at all"}]}
{"smiles": "Cc1ccc(Sc2ccccc2N2CCNCC2)c(C)c1", "note": "[vortioxetine]", "values": [{"measurement": "complex I activity (relative to control = 100%)", "setting": "[1]; listed as VOR", "value": "5.5 ± 1.8% and 5.5%"}, {"measurement": "CS (% of Control)", "setting": "[2]; 10 μM drug", "value": "109.3 % of Control"}, {"measurement": "CS (% of Control)", "setting": "[2]; 100 μM drug", "value": "* 96.9 % of Control"}, {"measurement": "MDH (% of Control)", "setting": "[3]; 10 μM drug", "value": "106.9 % of Control"}, {"measurement": "MDH (% of Control)", "setting": "[3]; 100 μM drug", "value": "100.2 % of Control"}, {"measurement": "total H2O2 content (relative to control = 100%)", "setting": "[4]; 50 μM drug", "value": "124.5 ± 2.5", "unit": "%"}, {"measurement": "total H2O2 content (relative to control = 100%)", "setting": "[4]; 100 μM drug", "value": "85.4 ± 5.0", "unit": "%"}, {"measurement": "MAO-B Inhibition (type)", "setting": "[5]", "value": "partial"}, {"measurement": "IC50", "setting": "[5]; mean ± SEM, 4 measurements, read-out: MAO-B IC50", "value": 18.2, "unit": "µM"}, {"measurement": "MAO-B Hillslope", "setting": "[5]; 4 measurements", "value": 2.58}, {"measurement": "MAO-B Residual Activity", "setting": "[5]; 4 measurements", "value": 0.229, "unit": "rel.u."}]}
{"smiles": "CNC1(c2ccccc2Cl)CCCCC1=O", "note": "(centres unmarked) [ketamine]", "values": [{"measurement": "complex I activity (relative to control = 100%)", "setting": "[1]", "value": "91.2 ± 6.6", "unit": "%"}, {"measurement": "CS (% of Control)", "setting": "[2]; 10 μM drug", "value": "107.3 % of Control"}, {"measurement": "CS (% of Control)", "setting": "[2]; 100 μM drug", "value": "97.4 % of Control"}, {"measurement": "MDH (% of Control)", "setting": "[3]; 10 μM drug", "value": "97.4 % of Control"}, {"measurement": "MDH (% of Control)", "setting": "[3]; 100 μM drug", "value": "101.7 % of Control"}, {"measurement": "effect on total H2O2 production (in words)", "setting": "[4]; 10, 50 and 100 µM", "value": "no statistically significant effect"}, {"measurement": "IC50", "setting": "[5]", "value": 51.2, "unit": "µM"}, {"measurement": "MAO-B Inhibition (type)", "setting": "[5]", "value": "weak"}, {"measurement": "MAO-B Hillslope", "setting": "[5]; 4 measurements", "value": 2.12}, {"measurement": "MAO-B Residual Activity", "setting": "[5]; 4 measurements", "value": 0.707, "unit": "rel.u."}]}
